Results from ChEMBL document CHEMBL1158516, “Synthesis and application of a photoaffinity analog of dehydroepiandrosterone (DHEA)” (Bioorg Med Chem Lett, 2010).
Calls of active or inactive are those of the source. The calls are words filed in the database; no cut-off is given here.

System: Endothelial cell
Experiment: Binding affinity to DHEA receptor in bovine aortic endothelial cells exposed to UV for 15 mins at 5 nM after 1 hr by chemiluminescence
Type: cell-based
Details: Bos taurus

O=C(CCCC[C@@H]1SC[C@@H]2NC(=O)N[C@@H]21)NCCCC[C@H](NC(=O)c1ccc(C(=O)c2ccccc2)cc1)C(=O)O
Activity: inactive

C[C@]12CC[C@H](O)CC1=CC[C@@H]1[C@@H]2CC[C@]2(C)/C(=N/OCC(=O)NCCCCCCNC(=O)[C@H](CCCCNC(=O)CCCC[C@@H]3SC[C@@H]4NC(=O)N[C@@H]43)NC(=O)c3ccc(C(=O)c4ccccc4)cc3)CC[C@@H]12
Activity: Active
